The test system of assay [1] is IRF pathway in THP1-Dual STING reporter cells. Kind of assay: STING THP1 Reporter Assay, IRF pathway (secreted Lucia luciferase). Particulars: 100% = 100 μM cGAMP. It is filed as cell-based, human. From the text:
(§1) THP1-Dual™ cells were derived from the human THP-1 monocyte cell line by stable integration of two inducible reporter constructs. To this end, THP1-Dual™ cells allow the simultaneous study of the NF-κB pathway, by monitoring the activity of SEAP, and the IRF pathway by assessing the activity of a secreted luciferase (Lucia). Both reporter proteins are readily measurable in the cell culture supernatant when using QUANTI-Blue™, a SEAP detection reagent, and QUANTI-Luc™, a luciferase detection reagent.
(§2) THP1-Dual™ cells induce the activation of NF-κB in response to STING agonists. They also trigger the IRF pathway upon stimulation with STING agonists, such as cGAMP. Here, the THP-1-Dual cells were used to assess STING binders for function on the cellular level.
(§3) Serial dilutions of compounds in DMSO were added to low volume 384 well plates at 100 nl/well using an ECHO acoustic dispenser (Labcyte, model 550) to achieve final starting concentration of 100 μM in cell suspension. […] One column of the plate was reserved for treatment with cGAMP at 100 μM for 100% activation calculation and one column for no treatment (DMSO only) for baseline activation. Plates were then incubated in 37° C. incubator at 5% CO2 for 20 hours.
(§4) In the SEAP assay, 5 μl of 2× QuantiBlue (Invivogen, cat #Rep-qb2) is added to 384 well black plates seeded with THP1 cells and incubated at 37° C. for 2 hours. Plates were read on the Envision (Perkin Elmer) at 620 nm wavelength (OD620). In the luciferase assay, 5 μl of Quantiluc (Invivogen, Rep-qlc2) is added to white 384 well plates seeded with THP1 cells and read at 5 minutes on the Envision (Perkin Elmer) using a luminescence protocol (RLU). For both cell lines, 100% activation was determined by value (RLU) of THP-1 Dual STING cells stimulated with 100 μM cGAMP (Invivogen, cat #TLRL-NACGA23-5).
Background: Reporter assays use an easily measured gene product as a stand-in for the process of interest.

Assay [2] has as its target T1, STING WT: His-TVMV-S-hSTING(155-341)-H232R (Homo sapiens, UniProt Q86WV6, H232R).
T1 construct: STING WT: His-TVMV-S-hSTING(155-341)-H232R
The experiment in a line: STING HTRF Binding Assay, STING WT. Particulars: 20 nM His-tagged STING cytoplasmic domain, 200 nM fluorescein-labeled cGAMP analog probe, one hour; read-out: HTRF Binding Assays IC50 (μM) STING WT. Here is the method: (§5) A time resolved FRET-based competition binding assay was used to assess test article binding to STING WT and STING AQ. His-tagged STING cytoplasmic domain (WT or AQ) at a concentration of 20 nM was incubated with 2.5 nM Tb-labeled anti-His antibody, test compound, and fluorescein-labeled cGAMP analog probe (BioLog cat. no. C195) at a concentration of 200 nM (STING WT) or 40 nM (STING AQ) in PBS containing 0.005% Tween-20 and 0.1% BSA for one hour. Fluorescence at 495 nm and 520 nm was measured using an EnVision microplate reader to quantify FRET between Tb-labeled anti-His antibody and fluorescein-labeled probe. Background was defined as the signal obtained in the absence of STING protein, and background subtracted FRET ratios were normalized to the maximum signal obtained in the absence of test compound. These values were converted to a percent inhibition. Percent inhibition was determined for test compounds at 11 concentrations. The IC50, defined as the concentration of competing test compound needed to reduce specific binding of the probe by 50%, was calculated using the 4 parameter logistic equation to fit the data

For assay [3], the system named is NF-κB pathway in THP1-Dual STING reporter cells. Kind of assay: STING THP1 Reporter Assay, NF-κB pathway (SEAP). The class given is cell-based, human. Particulars: 100% = 100 μM cGAMP.
From the text: as §1, §2, §3, §4

The target of assay [4] is T2, STING AQ: His-TVMV-S-hSTING(155-341)-G230A-R293Q (Homo sapiens, UniProt Q86WV6, G230A/H232R/R293Q).
T2 construct: STING AQ: His-TVMV-S-hSTING(155-341)-G230A-R293Q
Kind of assay: STING HTRF Binding Assay, STING AQ. Particulars: 20 nM His-tagged STING cytoplasmic domain, 40 nM fluorescein-labeled cGAMP analog probe, one hour; read-out: HTRF Binding Assays IC50 (μM) STING AQ. How it is done: as §5

Where [5] appears, read: Homo sapiens, THP1-Dual, 20 h, read-out: THP1 Reporter Assays EC50 (μM) IRF3, THP1-Dual cells, 10% human plasma, 20 hours, luciferase.
The mark [6] stands for this setting: Homo sapiens, THP1-Dual, 20 h, read-out: THP1 Reporter Assays EC50 (μM) NFkB, THP1-Dual cells, 10% human plasma, 20 hours, SEAP.
Setting [7] is: THP1-Dual cells, 10% human plasma, 20 hours, luciferase, read-out: THP1 Reporter Assays EC50 (μM) IRF3.
[8] abbreviates: THP1-Dual cells, 10% human plasma, 20 hours, SEAP, read-out: THP1 Reporter Assays EC50 (μM) NFkB.
Setting [9] is: Homo sapiens, THP1-Dual, 20 h, THP1-Dual cells, 10% human plasma, 20 hours, luciferase, read-out: THP1 Reporter Assays EC50 (μM) IRF3.
Where [10] appears, read: Homo sapiens, THP1-Dual, 20 h, THP1-Dual cells, 10% human plasma, 20 hours, SEAP, read-out: THP1 Reporter Assays EC50 (μM) NFkB.

In patent publication US11660311B2, “Cyclic dinucleotides as anticancer agents” (priority 2017, dated 2023) one finds EC50 and IC50 data, which are given here for 15 molecules.

Read-outs that look alike come from different tables or passages of the source.

T1 sequence (Q86WV6 with tags, fused parts or gaps H232R): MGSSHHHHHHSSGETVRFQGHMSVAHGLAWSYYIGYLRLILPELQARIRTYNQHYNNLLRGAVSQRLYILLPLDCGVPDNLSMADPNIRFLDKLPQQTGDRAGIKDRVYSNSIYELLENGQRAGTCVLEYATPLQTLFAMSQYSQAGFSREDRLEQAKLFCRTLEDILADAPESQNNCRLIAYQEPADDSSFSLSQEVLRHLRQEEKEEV
T2 sequence (Q86WV6 with tags, fused parts or gaps G230A/H232R/R293Q): as the sequence (Q86WV6 with tags, fused parts or gaps H232R) above, with G99A, R162Q counted along it

What is called EC50 is the concentration needed to bring the measured effect to its halfway point. Broadly, the IC50 is the concentration that gives 50% inhibition. For `Nc1ncnc2c1ncn2[C@@H]1O[C@@H]2COP(=O)(S)O[C@H]3[C@@H](O)[C@H](n4cnc5c(=O)[nH]c6nccn6c54)O[C@@H]3COP(=O)(S)O[C@H]2[C@H]1F` (mixture of isomers) [Example 5, (1S,6R,8R,9R,10R,15R,17R,18R)-8-(6-amino-9H-purin-9-yl)-9-fluoro-18-hydroxy-17-{4-oxo-1H,4H,5H-imidazo[2,1-b]purin-1-yl}-3,12-disulfanyl-2,4,7,11,13,16-hexaoxa-3λ^5,12λ^5-diphosphatricyclo[13.3.0.0^6,10]octadecane-3,12-dione], the EC50 worked out at 0.49 µM in assay [1] (setting [5]) and 1.35 µM in assay [3] (setting [6]). Further, the concentration for half-maximal inhibition (IC50) in assay [2] came out at 0.004 µM; in assay [4] it was 0.001 µM.
For the molecule `Nc1ncnc2c1ncn2[C@@H]1O[C@@H]2COP(=O)(S)O[C@H]3[C@@H](O)[C@H](n4cnc5c(=O)n6ccnc6[nH]c54)O[C@@H]3COP(=O)(S)O[C@H]2[C@H]1F` (single isomer, unassigned) [Example 1-1], the concentration giving a half-maximal response (EC50) in assay [1] (setting [7]) was 0.38 µM; in assay [3] (setting [8]), 0.94 µM. Also, the concentration for half-maximal inhibition (IC50) in assay [2] stood at 0.02 µM; in assay [4] it was 0.01 µM.
On the same counts, the results for `Nc1ncnc2c1ncn2[C@@H]1O[C@@H]2COP(=O)(S)O[C@H]3[C@@H](O)[C@H](n4cnc5c(=O)n6ccnc6[nH]c54)O[C@@H]3COP(=O)(S)O[C@H]2[C@H]1F` (single isomer, unassigned) [Example 1-2] are 2.69 µM, 5.35 µM, 0.07 µM and 0.01 µM.
In the same order, the values of `NC(=O)c1cccc2c1nnn2[C@@H]1O[C@@H]2COP(=O)(S)O[C@H]3[C@@H](F)[C@H](n4cnc5c(N)ncnc54)O[C@@H]3COP(=O)(S)O[C@H]2[C@H]1F` (single isomer, unassigned) [Example 4-1] are greater than 100 µM, greater than 100 µM, greater than 100 µM and 17.8 µM.
As for `NC(=O)c1cccc2c1nnn2[C@@H]1O[C@@H]2COP(=O)(S)O[C@H]3[C@@H](F)[C@H](n4cnc5c(N)ncnc54)O[C@@H]3COP(=O)(S)O[C@H]2[C@H]1F` (single isomer, unassigned) [Example 4-2], the half-maximal effective concentration (EC50) in assay [1] (setting [9]) and in assay [3] (setting [10]) was greater than 100 µM each time. In addition, the figures for the IC50 in assay [2] and in assay [4] were 8.1 µM and 0.24 µM, respectively.
In the case of `NC(=O)c1cccc2c1nnn2[C@@H]1O[C@@H]2COP(=O)(S)O[C@H]3[C@@H](F)[C@H](n4cnc5c(N)ncnc54)O[C@@H]3COP(=O)(S)O[C@H]2[C@H]1F` (single isomer, unassigned) [Example 4-3], the EC50 in assay [1] (setting [7]) and in assay [3] (setting [8]) was greater than 100 µM throughout. In addition, the half-inhibitory concentration (IC50) in assay [2] stood at 12 µM; in assay [4], 0.39 µM.
For `NC(=O)c1cccc2c1nnn2[C@@H]1O[C@@H]2COP(=O)(S)O[C@H]3[C@@H](F)[C@H](n4cnc5c(N)ncnc54)O[C@@H]3COP(=O)(S)O[C@H]2[C@H]1F` (single isomer, unassigned) [Example 4-4], the EC50 in assay [1] (setting [7]) came to 81.1 µM; in assay [3] (setting [8]), 92.4 µM. The IC50 in assay [2] was 0.78 µM; in assay [4], 0.02 µM.
On to `NC(=O)c1cc([C@@H]2O[C@@H]3COP(=O)(S)O[C@H]4[C@@H](F)[C@H](n5cnc6c(N)ncnc65)O[C@@H]4COP(=O)(S)O[C@H]3[C@H]2O)[nH]n1` (single isomer, unassigned) [Example 6-1], for which the half-maximal effective concentration (EC50) in assay [1] (setting [9]) and in assay [3] (setting [10]) was greater than 100 µM each time. Also, the IC50 in assay [2] was determined as 5.58 µM; in assay [4], 1.32 µM.
`NC(=O)c1cc([C@@H]2O[C@@H]3COP(=O)(S)O[C@H]4[C@@H](F)[C@H](n5cnc6c(N)ncnc65)O[C@@H]4COP(=O)(S)O[C@H]3[C@H]2O)[nH]n1` (single isomer, unassigned) [Example 6-2]: the half-maximal effective concentration (EC50) in assay [1] (setting [7]) and in assay [3] (setting [8]) was greater than 100 µM each time. Moreover, the IC50 in assay [2] is 88.6 µM; in assay [4], 5.75 µM.
Turning to `NC(=O)c1cc([C@@H]2O[C@@H]3COP(=O)(S)O[C@H]4[C@@H](F)[C@H](n5cnc6c(N)ncnc65)O[C@@H]4COP(=O)(S)O[C@H]3[C@H]2O)[nH]n1` (single isomer, unassigned) [Example 6-3], the half-maximal effective concentration (EC50) in assay [1] (setting [7]) and in assay [3] (setting [8]) was greater than 100 µM in each case. Besides, the IC50 in assay [2] is greater than 100 µM; in assay [4], 16.2 µM.
As for `NC(=O)c1cc([C@@H]2O[C@@H]3COP(=O)(S)O[C@H]4[C@@H](F)[C@H](n5cnc6c(N)ncnc65)O[C@@H]4COP(=O)(S)O[C@H]3[C@H]2O)[nH]n1` (single isomer, unassigned) [Example 6-4], the EC50 in assay [1] (setting [7]) and in assay [3] (setting [8]) was greater than 100 µM each time. Moreover, the IC50 turned out to be 3.03 µM in assay [2] and 0.19 µM in assay [4].
For `NC(=O)c1cccc2c1nnn2[C@@H]1O[C@@H]2COP(=O)(O)O[C@H]3[C@@H](F)[C@H](n4cnc5c(N)ncnc54)O[C@@H]3COP(=O)(S)O[C@H]2[C@H]1F` (single isomer, unassigned) [Example 8-1], the EC50 in assay [1] (setting [9]) and in assay [3] (setting [10]) was greater than 100 µM in each case. Besides, the values for the IC50 in assay [2] and in assay [4] were 64.6 µM and 1.75 µM, respectively.
Take `NC(=O)c1cccc2c1nnn2[C@@H]1O[C@@H]2COP(=O)(O)O[C@H]3[C@@H](F)[C@H](n4cnc5c(N)ncnc54)O[C@@H]3COP(=O)(S)O[C@H]2[C@H]1F` (single isomer, unassigned) [Example 8-2]: the 50% effective concentration (EC50) in assay [1] (setting [7]) and in assay [3] (setting [8]) was greater than 100 µM in each case. Moreover, the concentration for half-maximal inhibition (IC50) was found to be 2.23 µM in assay [2] and 0.07 µM in assay [4].
For the molecule `Nc1ncnc2c1ncn2[C@@H]1O[C@@H]2COP(=O)(S)O[C@H]3[C@@H](O)[C@H](n4cnc5c4ncn4ncnc54)O[C@@H]3COP(=O)(O)O[C@H]2[C@H]1F` (single isomer, unassigned) [Example 10-2], the EC50 in assay [1] (read-out: THP1 Reporter Assays EC50 (μM) IRF3, THP1-Dual cells, 10% human plasma, 20 hours, luciferase) is 3.69 µM; in assay [3] (read-out: THP1 Reporter Assays EC50 (μM) NFkB, THP1-Dual cells, 10% human plasma, 20 hours, SEAP) it was 8.99 µM. Further, in assay [2], the concentration for half-maximal inhibition (IC50) was determined as 0.05 µM.
`Nc1ncnc2c1ncn2[C@@H]1O[C@@H]2COP(=O)(O)O[C@H]3[C@@H](O)[C@H](n4cnc5c4ncn4ncnc54)O[C@@H]3COP(=O)(O)O[C@H]2[C@H]1F` [Example 11, (1S,6R,8R,9R,10R,15R,17R,18R)-8-(6-amino-9H-purin-9-yl)-9-fluoro-3,12,18-trihydroxy-17-{3H-[1,2,4]triazolo[3,2-f]purin-3-yl}-2,4,7,11,13,16-hexaoxa-3λ^5,12λ^5-diphosphatricyclo[13.3.0.0^6,10]octadecane-3,12-dione]: the EC50 in assay [1] (setting [5]) was 8.35 µM; in assay [3] (setting [6]), 16 µM. Also, the half-inhibitory concentration (IC50) in assay [2] amounted to 0.23 µM.
